Data: patent US4622293A, “Iodothyronine immunoassays employing HMS as TBP blocking agent” (Miles Laboratories, Inc., priority 1983, dated 1986)

Assays:
[1] = Water solubility (statement); format: physicochemical
serum proteins = assay: Effect of pH on the dissociation of iodothyronine from serum proteins by HMS; format: binding; details: for % Dissociated: 1.0 mM HMS in MIX solution
Method: Assays were performed in 3 ml polystyrene test tubes in duplicate. A solution (designated "MIX") was prepared containing 27 mL of 0.1 M sodium phosphate, at the stated pH, 73 mL of 21% polyethyleneglycol, 1.0 mM HMS, and 10 micrograms (μg) (40 μL) I-125-thyroxine for each 100 mL. Assay solutions are made up by addition of 50 μL of a serum sample, 0.1 mL of anti(thyroxine) antiserum diluted in 0.1 M sodium phosphate (at the given pH) and 1.0 mL of the MIX solution. Assays are included for maximum binding of label and nonspecific binding.

apo(glucose oxidase) = apo(glucose oxidase) (Aspergillus niger, UniProt P13006); assay: Effect of HMS on the activation of apo(glucose oxidase) by an FAD-labeled thyroxine conjugate; format: biochemical; details: 37° C, pH 6.5, five minute incubation, read-out: % Activity (absorbance at 520 nm as percentage of that with no HMS)
Chain of apo(glucose oxidase) (P13006 17-605): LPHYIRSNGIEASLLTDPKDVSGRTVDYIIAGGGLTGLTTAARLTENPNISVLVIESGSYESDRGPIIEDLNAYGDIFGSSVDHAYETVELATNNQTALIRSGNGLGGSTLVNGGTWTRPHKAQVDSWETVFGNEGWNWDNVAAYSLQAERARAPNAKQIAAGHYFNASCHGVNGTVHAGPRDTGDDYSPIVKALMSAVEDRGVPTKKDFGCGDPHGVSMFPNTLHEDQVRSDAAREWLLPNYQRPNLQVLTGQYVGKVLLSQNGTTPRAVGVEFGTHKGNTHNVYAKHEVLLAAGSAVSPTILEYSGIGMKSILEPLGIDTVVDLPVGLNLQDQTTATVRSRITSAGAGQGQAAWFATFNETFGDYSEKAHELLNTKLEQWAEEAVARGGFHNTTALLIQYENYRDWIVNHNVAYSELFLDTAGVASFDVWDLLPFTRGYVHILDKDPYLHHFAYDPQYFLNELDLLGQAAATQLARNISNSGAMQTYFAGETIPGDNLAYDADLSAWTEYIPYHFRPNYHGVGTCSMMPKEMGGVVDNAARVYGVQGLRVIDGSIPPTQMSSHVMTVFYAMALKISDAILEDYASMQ
Method: The activation of apoglucose oxidase was set up with different concentrations of HMS and performed at 37° C. Assays containing 50 mM sodium phosphate, pH 6.5, 200 mM glucose, 2.0 mM sodium dichlorohydroxybenzene sulfonate (DHSA), 25 μg/mL peroxidase, various concentrations of HMS and 2.5 nM final concentration of a FAD-thyroxine conjugate (see U.S. Pat. No. 4,213,893) were started by adding apo(glucose oxidase), 4-aminoantipyrine, and anti(glucose oxidase) at final concentrations of 125 nM, 400 μM, and 8 μL/mL respectively. The absorbance at 520 nm was recorded after a five minute incubation. The data are presented in Table 3 as a percentage of the absorbance recorded when no HMS is present.

[2] = tested on: human serum proteins (thyroxine binding proteins, TBP); assay: Dissociation of 125I-thyroxine from human serum proteins by HMS (Sephadex column); details: for Percent Dissociated in 5 Minutes / Percent Dissociated in 30 Minutes: pH 6.0, room temperature
Method: Radioactive iodine-labeled thyroxine (^125 I-thyroxine obtained from New England Nuclear, Boston, MA USA) was equilibrated with 3.5 milliliter (mL) of normal human serum for 48 hours at 4° C. Aliquots of this serum [50 microliters (μL)] were added to 450 μL of 0.1 molar (M) sodium phosphate, pH 6.0, containing various concentrations of HMS to give the final concentrations given in Table 1. After 5 or 30 minutes of incubation at room temperature, a 500 μL aliquot was applied to a Sephadex column from a Seralute® thyroxine assay kit (Miles Laboratories, Inc., Ames Division, Elkhart, IN, USA), which has been equilibrated with 0.1 M sodium phosphate, pH 6.0. The total radioactivity applied to the columns was measured and the undissociated material was washed through the column. The columns were counted to determine the percentage of thyroxine dissociated from the serum proteins.

COc1cc(O)c(C(=O)c2ccccc2)cc1S(=O)(=O)O [HMS, 2-hydroxy-4-methoxybenzophenone-5-sulfonic acid]
Water solubility [1]: highly water soluble | % Dissociated (serum proteins; pH 6.0): 73% | % Dissociated (serum proteins; pH 6.5): 73% | % Dissociated (serum proteins; pH 7.0): 69% | % Dissociated (serum proteins; pH 7.5): 72% | Effect of pH on the efficiency of dissociation (serum proteins; pH range 6.0-7.5): essentially no effect | activity at 50 µM (apo(glucose oxidase); HMS 0.05 mM): 100% | activity at 100 µM (apo(glucose oxidase); HMS 0.10 mM): 100% | activity at 500 µM (apo(glucose oxidase); HMS 0.50 mM): 99% | activity at 1000 µM (apo(glucose oxidase); HMS 1.00 mM): 97% | activity at 5000 µM (apo(glucose oxidase); HMS 5.00 mM): 86% | activity at 10000 µM (apo(glucose oxidase); HMS 10.00 mM): 72% | Percent Dissociated in 5 Minutes ([2]; HMS 1 mM): 65% | Percent Dissociated in 30 Minutes ([2]; HMS 1 mM): 73% | Percent Dissociated in 5 Minutes ([2]; HMS 2 mM): 74% | Percent Dissociated in 30 Minutes ([2]; HMS 2 mM): 84% | Percent Dissociated in 5 Minutes ([2]; HMS 4 mM): 91% | Percent Dissociated in 30 Minutes ([2]; HMS 4 mM): 94% | Percent Dissociated in 5 Minutes ([2]; HMS 6 mM): 93% | Percent Dissociated in 30 Minutes ([2]; HMS 6 mM): 95% | Dissociation of TBP-bound iodothyronine ([2]; concentration 4 mM): over 90% | Dissociation of TBP-bound iodothyronine ([2]; reaction mixture concentration 1 mM, in a few minutes): over 50%
